Experiments:
[1] = target: JNK3 (Homo sapiens, UniProt P53779); assay: HTRF enzyme inhibition assay, JNK3; type: biochemical
Experimental: Homogeneous Time-resolved Fluorescence Assay (HTRF)
Enzyme inhibition assays to determine IC50 values for the kinases were performed as described previously.

[2] = system: JNK1; conditions: cited from earlier work

Sequence of JNK3 (P53779 whole entry): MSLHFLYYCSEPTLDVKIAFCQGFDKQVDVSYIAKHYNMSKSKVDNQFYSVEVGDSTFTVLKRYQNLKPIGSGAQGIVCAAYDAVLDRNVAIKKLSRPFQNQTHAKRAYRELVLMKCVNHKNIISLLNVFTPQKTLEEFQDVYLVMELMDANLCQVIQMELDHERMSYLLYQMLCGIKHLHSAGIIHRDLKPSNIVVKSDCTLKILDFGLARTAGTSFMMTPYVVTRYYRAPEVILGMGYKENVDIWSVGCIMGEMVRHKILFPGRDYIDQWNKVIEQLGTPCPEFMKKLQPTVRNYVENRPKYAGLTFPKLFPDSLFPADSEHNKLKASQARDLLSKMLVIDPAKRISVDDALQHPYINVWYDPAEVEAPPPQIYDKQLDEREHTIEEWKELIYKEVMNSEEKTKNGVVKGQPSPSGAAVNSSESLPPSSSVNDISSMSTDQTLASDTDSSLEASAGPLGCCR

Structure (SMILES)	IC50 [1]	affinity for JNK1 [2]
COc1ccccc1Nc1cc2cnn(-c3cc(C(=O)NC4COC4)sc3C)c2cc1F [Compound 23GA]	1 µM	–
CNC(=O)c1cc(-n2ncc3cc(Nc4c(F)cccc4Cl)c(COC)cc32)cs1 [Compound 21J]	0.006 µM	–
CNC(=O)c1cc(-n2ncc3cc(Nc4c(F)cccc4Cl)c(CN4CCC4)cc32)cs1 [Compound 21G]	0.137 µM	–
COc1ccccc1Nc1cc2cnn(-c3csc(C(=O)NC4COC4)c3)c2cc1F [Compound 23M]	0.014 µM	–
Cc1ccc(-n2nc(C(C)(C)C)cc2NC(=O)Nc2ccc(OCCN3CCOCC3)c3ccccc23)cc1 [BIRB796]	–	no affinity
